Data set [1] has as its system SH-SY5Y cells. In words: Cell viability of SH-SY5Y cells by MTT (toxicity check). The conditions noted are these: undifferentiated SH-SY5Y, 70 µM of OA, 24 h.
Data set [2] is described as follows: PAMPA-BBB parallel artificial membrane permeability assay. Type of data set: in vitro ADME, porcine. To be noted: pig, pH 7.4, PBS:EtOH (70:30) as solvent, mean ± SD of 2 independent experiments, 2 h 30 min at 25 °C, read-out: Pe. As for the experimental part:
Filter PDVF membrane units (diameter 30 mm, pore size 0.45 μm) from Symta were used to filter the samples. A 96-well plate UV reader (Thermoscientific, Multiskan spectrum) was used for the UV measurements. […] These solutions were filtered. […] Then the donor plate was carefully put on the acceptor plate to form a “sandwich”, which was left undisturbed for 2 h and 30 min at 25 °C. […] During this time the compounds diffused from the donor plate through the brain lipid membrane into the acceptor plate. After incubation, the donor plate was removed. UV plate reader determined the concentration of compounds and commercial drugs in the acceptor and the donor wells. […] 10 quality control compounds (previously mentioned) of known BBB permeability were included in each experiment to validate the analysis set.

SMILES strings stand for the structures.

As for `C=C1[C@@H](O)[C@@H]2O[C@]3(CC[C@H](/C=C/[C@@H](C)[C@@H]4CC(C)=C[C@@]5(O[C@H](C[C@@](C)(O)C(=O)O)CC[C@H]5O)O4)O3)CC[C@H]2O[C@@H]1[C@@H](O)C[C@H](C)[C@H]1O[C@@]2(CCCCO2)CC[C@H]1C` [OA, okadaic acid], the “decrease of cell viability” value in data set [1] is on record as “about 43%”. Regarding `CN1C(C(=O)Nc2ccccn2)=C(O)c2ccccc2S1(=O)=O` [Piroxicam], the Papp at […] in data set [2] was determined as 0.6 ± 0.8 ×10⁻⁶ cm/s. As for `CN(C)CCCN1c2ccccc2Sc2ccccc21` [Promazine], in data set [2], the Papp at […] came out at 12 ± 0.9 ×10⁻⁶ cm/s.

The record behind these values is article PMC10784249 (Natural Products and Bioprospecting, 2024).
